This note sets out measurements from ChEMBL document CHEMBL3046105, “Synthesis and antihyperlipidemic efficiency of berberine-based HMG-CoA reductase inhibitor” (Med Chem Res, 2012).

Where only a bound is given, the exact number is not on record here.

The subject of series [1] is Oryctolagus cuniculus. As to the kind of experiment: Antihyperlipidemic activity in high fat-high cholesterol fed New Zealand Oryctolagus cuniculus (rabbit) assessed as low-density lipoprotein-cholesterol level in blood at 15 mg/kg, po for 40 days (reference value: 3.45 +/- 0.56 mmol/l). The class given is functional.
Series [2] relates to Oryctolagus cuniculus. The series is described as follows: Antihyperlipidemic activity in high fat-high cholesterol fed New Zealand Oryctolagus cuniculus (rabbit) assessed as high-density lipoprotein-cholesterol level in blood at 15 mg/kg, po for 40 days (reference value: 0.67 +/- 0.22 mmol/l). It is filed as functional.
For series [3], the system named is Oryctolagus cuniculus. The series is described as follows: Antihyperlipidemic activity in high fat-high cholesterol fed New Zealand Oryctolagus cuniculus (rabbit) assessed as triglyceride level in blood at 15 mg/kg, po for 40 days (reference value: 2.11 +/- 0.43 mmol/l). It is filed as functional.
The target in series [4] is T1, 3-hydroxy-3-methylglutaryl-coenzyme A reductase (Mus musculus) (UniProt Q01237).
T1 sequence (whole entry): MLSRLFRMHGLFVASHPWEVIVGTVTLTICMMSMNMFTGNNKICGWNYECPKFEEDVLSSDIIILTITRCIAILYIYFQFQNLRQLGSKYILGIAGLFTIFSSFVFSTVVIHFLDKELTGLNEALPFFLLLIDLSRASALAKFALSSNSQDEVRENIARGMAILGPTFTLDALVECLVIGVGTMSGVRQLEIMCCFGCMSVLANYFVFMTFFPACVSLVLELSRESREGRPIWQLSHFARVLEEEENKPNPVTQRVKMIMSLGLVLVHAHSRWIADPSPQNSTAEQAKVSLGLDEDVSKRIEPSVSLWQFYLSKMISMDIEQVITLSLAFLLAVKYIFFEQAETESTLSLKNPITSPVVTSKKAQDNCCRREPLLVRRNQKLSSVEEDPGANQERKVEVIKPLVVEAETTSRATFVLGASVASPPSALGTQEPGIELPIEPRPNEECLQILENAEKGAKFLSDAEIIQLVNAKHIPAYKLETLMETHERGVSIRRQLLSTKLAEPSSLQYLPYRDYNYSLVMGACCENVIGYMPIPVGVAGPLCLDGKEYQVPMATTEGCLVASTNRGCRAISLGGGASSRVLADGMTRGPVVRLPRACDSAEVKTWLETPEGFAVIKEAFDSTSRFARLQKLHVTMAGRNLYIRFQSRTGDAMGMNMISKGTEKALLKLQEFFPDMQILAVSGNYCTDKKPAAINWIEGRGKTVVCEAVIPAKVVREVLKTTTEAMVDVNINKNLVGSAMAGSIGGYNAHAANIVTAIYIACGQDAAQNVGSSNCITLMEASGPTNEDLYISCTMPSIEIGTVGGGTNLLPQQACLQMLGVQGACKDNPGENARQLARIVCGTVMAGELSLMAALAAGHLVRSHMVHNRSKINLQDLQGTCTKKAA
As to the kind of experiment: Inhibition of HMGR isolated from Mus musculus (mouse) liver assessed as change in NADPH at 8 umol/l by HPLC analysis.

Series [5] is described as follows: Toxicity in Mus musculus Kunming (mouse). It is filed as organism-based. As to conditions: in vivo.
Series [6] deals with Oryctolagus cuniculus. As to the kind of experiment: Toxicity in high fat-high cholesterol fed New Zealand Oryctolagus cuniculus (rabbit) assessed as mortality at 15 mg/kg, po for 40 days. Also noted: dose 15 mg/kg, route oral. As to conditions: in vivo, 960 h. It is filed as organism-based.
Series [7] concerns Oryctolagus cuniculus. As to the kind of experiment: Toxicity in high fat-high cholesterol fed New Zealand Oryctolagus cuniculus (rabbit) assessed as body weight at 15 mg/kg, po for 40 days. The class given is organism-based. Also noted: dose 15 mg/kg, route oral. As to conditions: in vivo, 960 h.
Series [8] concerns Oryctolagus cuniculus. The series is described as follows: Antihyperlipidemic activity in high fat-high cholesterol fed New Zealand Oryctolagus cuniculus (rabbit) assessed as total cholesterol level in blood at 15 mg/kg, po for 40 days (reference value: 8.89 +/- 0.53 mmol/l). The class given is functional.
The test system of series [9] is Oryctolagus cuniculus. As to the kind of experiment: Antihyperlipidemic activity in high fat-high cholesterol fed New Zealand Oryctolagus cuniculus (rabbit) assessed as total cholesterol level in blood at 4 mg/kg, po for 40 days (reference value: 8.89 +/- 0.53 mmol/l). It is filed as functional.
In series [10] the test system is Oryctolagus cuniculus. As to the kind of experiment: Antihyperlipidemic activity in high fat-high cholesterol fed New Zealand Oryctolagus cuniculus (rabbit) assessed as low-density lipoprotein-cholesterol level in blood at 4 mg/kg, po for 40 days (reference value: 3.45 +/- 0.56 mmol/l). The class given is functional.
The subject of series [11] is Oryctolagus cuniculus. The series is described as follows: Antihyperlipidemic activity in high fat-high cholesterol fed New Zealand Oryctolagus cuniculus (rabbit) assessed as triglyceride level in blood at 4 mg/kg, po for 40 days (reference value: 2.11 +/- 0.43 mmol/l). It is filed as functional.
Series [12] concerns Oryctolagus cuniculus. As to the kind of experiment: Antihyperlipidemic activity in high fat-high cholesterol fed New Zealand Oryctolagus cuniculus (rabbit) assessed as high-density lipoprotein-cholesterol level in blood at 4 mg/kg, po for 40 days (reference value: 0.67 +/- 0.22 mmol/l). It is filed as functional.

As for `CCCCCCCCCCCCCCc1c2c(OC)c(OC)ccc2cc2[n+]1CCc1cc3c(cc1-2)OCO3.[Cl-]` [8-TETRADECYL-BERBERINE CHLORIDE], the Activity was 2.41e+06 nmol/L in the series with Oryctolagus cuniculus [1]; 730000 nmol/L in the series with Oryctolagus cuniculus [2]; 1.73e+06 nmol/L in the series on Oryctolagus cuniculus [3]; “Non-toxic” in the series with Oryctolagus cuniculus [6]; “Non-toxic” with Oryctolagus cuniculus [7]; 6.02e+06 nmol/L with Oryctolagus cuniculus [8]. The inhibition in [4] was 11.2%. Besides, in [5], the 50% lethal dose (LD50) turned out to be 803 mg/kg.
On to `CCCCCCCCc1c2c(OC)c(OC)ccc2cc2[n+]1CCc1cc3c(cc1-2)OCO3.[Cl-]` [8-OCTYL-BERBERINE CHLORIDE], for which the Activity in the series on Oryctolagus cuniculus [1] is 3.06e+06 nmol/L; with Oryctolagus cuniculus [2], 700000 nmol/L; in the series with Oryctolagus cuniculus [3], 1.95e+06 nmol/L; with Oryctolagus cuniculus [6], “Non-toxic”; in the series with Oryctolagus cuniculus [7], “Non-toxic”; with Oryctolagus cuniculus [8], 6.25e+06 nmol/L. In addition, the LD50 in [5] is 534 mg/kg.
Turning to `COc1ccc2cc3[n+](cc2c1OC)CCc1cc2c(cc1-3)OCO2.[Cl-]` [BERBERINE CHLORIDE], the Activity in the series on Oryctolagus cuniculus [1] was found to be 3.27e+06 nmol/L; in the series on Oryctolagus cuniculus [2], 700000 nmol/L; in the series with Oryctolagus cuniculus [3], 2.02e+06 nmol/L; with Oryctolagus cuniculus [8] it was 7.94e+06 nmol/L. In addition, the 50% lethal dose (LD50) in series [5] was determined as 764 mg/kg.
For the compound `CC[C@H](C)C(=O)O[C@H]1C[C@@H](C)C=C2C=C[C@H](C)[C@H](CC[C@@H]3C[C@@H](O)CC(=O)O3)[C@H]21` [LOVASTATIN], the Activity with Oryctolagus cuniculus [9] amounted to 2.56e+06 nmol/L; with Oryctolagus cuniculus [10], 1.85e+06 nmol/L; with Oryctolagus cuniculus [11] it was 1.62e+06 nmol/L; in the series with Oryctolagus cuniculus [12] it was 780000 nmol/L. Besides, in [4], the inhibition amounted to 20.2%. For the same compound, the LD50 in series [5] is greater than 1000 mg/kg.
Take `CCCCCCCCCCCCCCCCCCc1c2c(OC)c(OC)ccc2cc2[n+]1CCc1cc3c(cc1-2)OCO3.[Cl-]` [8-OCTADECYL-BERBERINE CHLORIDE]: the Activity in the series with Oryctolagus cuniculus [1] is 2.55e+06 nmol/L; with Oryctolagus cuniculus [2], 750000 nmol/L; in the series with Oryctolagus cuniculus [3], 1.6e+06 nmol/L; with Oryctolagus cuniculus [6] it was “Non-toxic”; in the series with Oryctolagus cuniculus [7] it was “Non-toxic”; in the series with Oryctolagus cuniculus [8], 2.37e+06 nmol/L. The inhibition in [4] worked out at 33%. The compound also displayed a median lethal dose (LD50) in series [5] greater than 1000 mg/kg.
Take `CCCCCCCCCCCCc1c2c(OC)c(OC)ccc2cc2[n+]1CCc1cc3c(cc1-2)OCO3.[Cl-]` [8-DODECYL-BERBERINE CHLORIDE]: the Activity was 2.98e+06 nmol/L with Oryctolagus cuniculus [1]; 720000 nmol/L with Oryctolagus cuniculus [2]; 1.86e+06 nmol/L in the series with Oryctolagus cuniculus [3]; “Non-toxic” with Oryctolagus cuniculus [6]; “Non-toxic” with Oryctolagus cuniculus [7]; 6.04e+06 nmol/L with Oryctolagus cuniculus [8]. Moreover, the inhibition in [4] is 4.2%. The LD50 in series [5] stood at 752 mg/kg.

A word on the inhibition: it is how much of the control response was suppressed. The LD50 is the dose expected to kill half of the subjects tested. A low value points to greater toxicity.
